Patent publication US20040224989A1, “S-lansoprazole compositions and methods” (priority 1999, published 2004)
Where two headings read alike, the source gives them in different places.

What was measured:
[1] = tested on: CYP2D6; test: metabolism by CYP2D6; details: CYP2D6 is the polymorphically expressed enzyme
[2] = stability at low pH; type: physicochemical
From the text: The terms “pharmaceutically acceptable salts” or “a pharmaceutically acceptable salt thereof” refer to salts prepared from pharmaceutically acceptable non-toxic bases. […] Suitable pharmaceutically acceptable base addition salts for the compound of the present invention include metallic salts of aluminum, calcium, lithium, magnesium, potassium, sodium, titanium and zinc or organic salts made from lysine, N,N′-dibenzylethylenediamine, chloroprocaine, choline, diethanolamine, ethylenediamine, meglumine (N-methylglucamine) and procaine. If any salt is to be used, sodium salts are preferred.

[3] = pharmacokinetic and duration profile of the S(−) isomer; type: in vivo; details: compared with racemic lansoprazole
From the text: Syndrome, psoriasis and other disorders, including those that would benefit from an inhibitory action on H^+, K^+-ATPase in that it provides this effective treatment while substantially reducing the adverse effects of racemic lansoprazole including, but not limited to, hepatocellular neoplasia, gastric carcinoids, headache, diarrhea and skin alterations.

[4] = target: CYP3A4 (Homo sapiens, UniProt P08684); test: metabolism by CYP3A4
Chain of CYP3A4 (P08684 whole entry): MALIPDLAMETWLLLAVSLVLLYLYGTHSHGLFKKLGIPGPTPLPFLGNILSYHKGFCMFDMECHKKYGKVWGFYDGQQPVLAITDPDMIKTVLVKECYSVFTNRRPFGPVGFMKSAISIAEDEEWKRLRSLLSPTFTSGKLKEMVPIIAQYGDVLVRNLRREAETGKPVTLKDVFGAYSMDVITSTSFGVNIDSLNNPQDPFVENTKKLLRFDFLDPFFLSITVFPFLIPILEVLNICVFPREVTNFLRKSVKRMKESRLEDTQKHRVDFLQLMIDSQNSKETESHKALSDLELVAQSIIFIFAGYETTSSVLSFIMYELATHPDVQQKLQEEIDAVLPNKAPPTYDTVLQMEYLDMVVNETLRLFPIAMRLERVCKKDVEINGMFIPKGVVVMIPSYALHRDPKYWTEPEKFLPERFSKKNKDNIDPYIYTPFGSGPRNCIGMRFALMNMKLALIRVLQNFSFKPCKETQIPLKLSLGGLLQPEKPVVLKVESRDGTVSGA

[5] = tested on: canine parietal cells; details: isolated canine parietal cells; (+) versus (−) enantiomer; Nagaya et al.; cited from earlier work
[6] = tested on: CYP2D6
[7] = tested on: hepatic drug metabolizing enzyme systems; details: relative to omeprazole; cited from earlier work
[8] = tested on: gastric acid secretion; details: in humans; cited from earlier work
[9] = tested on: serum gastrin; details: humans, on administration; cited from earlier work
[10] = in humans; cited from earlier work

Row | Structure (SMILES) | metabolism by CYP2D6 [1] | stability at low pH [2] | AUC (area under the curve) [3] | duration [3] | first pass metabolism [3] | onset [3] | metabolism by CYP3A4 [4] | effect on acid formation stimulated by db-cAMP [5] | metabolism by CYP2D6 [6] | effects on hepatic drug metabolizing enzyme systems [7] | duration of the acid inhibitory effect [8] | fasting serum gastrin levels [9] | serum half-life [10]
1 | Cc1c(OCC(F)(F)F)ccnc1C[S+]([O-])c1nc2ccccc2[nH]1 (single isomer, unassigned; (-)) [S(−) lansoprazole, (−) isomer of 2-[3-methyl-4-(2,2,2-trifluoroethoxy)pyrid-2-yl]methylsulfinyl-benzimidazole] | metabolized by both CYP2D6 and CYP3A4 | unstable at low pH | higher AUC | longer duration | lower first pass metabolism | more rapid onset | metabolized by both CYP2D6 and CYP3A4 | almost identical | – | – | – | – | –
2 | Cc1c(OCC(F)(F)F)ccnc1C[S@@+]([O-])c1nc2ccccc2[nH]1 [R(+) lansoprazole, reference compound] | – | – | – | – | – | – | metabolized only by CYP2D6 | almost identical | metabolized only by CYP2D6 | – | – | – | –
3 | Cc1c(OCC(F)(F)F)ccnc1C[S+]([O-])c1nc2ccccc2[nH]1 (racemic) [racemic lansoprazole, 2-[3-methyl-4-(2,2,2-trifluoroethoxy)pyrid-2-yl]methylsulfinyl-benzimidazole] | – | – | – | – | – | – | – | – | – | comparable to omeprazole | about 24 hours | significantly elevated | about 1.5 hours
